Measured values taken from US20250206761A1, “HALOINDOLE MACROCYCLIC COMPOUNDS FOR THE TREATMENT OF CANCER” (Hoffmann-La Roche Inc., priority 2022, published 2025).

Experiments:
KRAS G12C-BRAF complex = KRAS G12C-BRAF complex (Homo sapiens (Human), UniProt P01116+P62937, G12C); assay: KRAS-BRAF with CYPA (500 nM) interaction assay (TR-FRET), G12C; format: biochemical
Procedure: (§1) In this example, TR-FRET was also used to measure the compound or compound-CYPA dependent disruption of the KRAS G12C-BRAF complex. This protocol was also used to measure disruption of KRAS G12D or KRAS G12V binding to BRAF by a compound of the invention, respectively. In assay buffer containing 25 mM HEPES PH=7.4 (4-(2-hydroxyethyl)-1-piperazineethanesulfonic acid, Thermo, 15630080), 0.002% Tween20, 0.1% BSA, 100 mM NaCl, 5 mM MgCl2, 10 μM GMPPNP (Guanosine 5′-[β,γ-imido]triphosphate trisodium salt hydrate, Sigma, G0635), […] 384-well assay plate at final concentrations of 50 nM, 6.25 nM and 1 nM, respectively. Compound was present in plate wells as a 16-point 3-fold dilution series starting at a final concentration of 10 μM and incubated for 3 hours. A mixture of MAb Anti-6His-XL665 (Cisbio, 61HISXLB) and Mab anti-GST-TB cryptate (Cisbio, 61GSTTLB) was then added at a final concentration of 6.67 nM and 0.21 nM, respectively, and the plate was incubated for an additional 1.5 hours. TR-FRET signal was read on a PHERstar FSX microplate reader (Ex320 nm, Em 665/615 nm). Compounds that facilitate disruption of the KRAS-BRAF complex were identified as those eliciting a decrease in the TR-FRET ratio relative to DMSO control wells.

[1] = system: AGS (ATCC-CRL-1739) cells; assay: Cell viability assay, G12D (AGS); format: cell-based, human; settings: KRAS cell viability, 72 hrs, Cell Counting Kit-8
Procedure: (§2) The purpose of this cellular assay was to determine the effects of test compounds on the proliferation of human cancer cell lines NCI-H358 (ATCC-CRL5807) cells, AGS (ATCC-CRL-1739) cells, SW620 (ATCC-CCL-227) over a 3-day treatment period by quantifying the amount of NADPH present at endpoint using Cell Counting Kit-8.
(§3) Cells were seeded at 5,000 cells/well (NCI-H358), 2,000 cells/well (AGS) 2,000 cells/well (SW620) in 96-well assay plates (Corning-3699) and incubated overnight. On the day of the assay, diluted compounds were then added in a final concentration of 0.5% DMSO. After 72 hrs incubation, a tenth of the volume of cell counting kit 8 (Dnjindo-CK04) was added into each well. Read the signal (OD450 minus OD650) using EnVision after 2 hrs incubation. IC50 was determined by fitting a 4-parameter sigmoidal concentration response model.

[2] = target: KRAS G12D binding to BRAF (Homo sapiens (Human), UniProt P01116+P62937, G12D); assay: KRAS-BRAF with CYPA (500 nM) interaction assay (TR-FRET), G12D; format: biochemical
Procedure: as §1

SW620 (ATCC-CCL-227) = assay: Cell viability assay, G12V (SW620); format: cell-based, human; settings: KRAS cell viability, SW620, 72 hrs, Cell Counting Kit-8
Procedure: as §2, §3

[3] = target: KRAS G12V binding to BRAF (Homo sapiens (Human), UniProt P01116+P62937, G12V); assay: KRAS-BRAF with CYPA (500 nM) interaction assay (TR-FRET), G12V; format: biochemical
Procedure: In this example, TR-FRET was also used to measure the compound or compound-CYPA dependent disruption of the KRAS G12C-BRAF complex. This protocol was also used to measure disruption of KRAS G12D or KRAS G12V binding to BRAF by a compound of the invention, respectively. In assay buffer containing 25 mM HEPES PH=7.4 (4-(2-hydroxyethyl)-1-piperazineethanesulfonic acid, Thermo, 15630080), 0.002% Tween20, 0.1% BSA, 100 mM NaCl, 5 mM MgCl2, 10 μM GMPPNP (Guanosine 5′-[β,γ-imido]triphosphate trisodium salt hydrate, Sigma, G0635), […], GMPPNP loaded 6His-KRAS proteins, and […], 6.25 nM and 1 nM, respectively. Compound was present in plate wells as a 16-point 3-fold dilution series starting at a final concentration of 10 μM and incubated for 3 hours. A mixture of MAb Anti-6His-XL665 (Cisbio, 61HISXLB) and Mab anti-GST-TB cryptate (Cisbio, 61GSTTLB) was then added at a final concentration of 6.67 nM and 0.21 nM, respectively, and the plate was incubated for an additional 1.5 hours. TR-FRET signal was read on a PHERstar FSX microplate reader (Ex320 nm, Em 665/615 nm). Compounds that facilitate disruption of the KRAS-BRAF complex were identified as those eliciting a decrease in the TR-FRET ratio relative to DMSO control wells.

[4] = system: phosphorylation of ERK, KRAS G12V in SW620; assay: pERK inhibition assay, KRAS G12V; format: cell-based, human; settings: Homo sapiens, SW-620, SW620, 4 hours
Procedure: (§4) This assay is to measure the ability of test compounds in inhibiting the phosphorylation of ERK, the downstream signaling of KRAS G12C in NCJ-H358 cells, KRAS G12D in AGS cells, and KRAS G12V in SW620. NCJ-H358 (ATCC-CRL5807) cells, AGS (ATCC-CRL-1739) cells, SW620 (ATCC-CCL-227) cells were all grown and maintained using RPMI-1640 medium (Thermo Fisher Scientific) with 10% fetal bovine serum and 1% penicillin/streptomycin. On the day prior to compound addition, cells were plated in tissue culture-treated 96 well plates (Corning-3699) at a density of 30,000 cell/well, 20,000 cell/well, 30,000 cell/well for NCJ-H358, AGS and SW620 respectively, and allowed for attachment overnight. Diluted compounds were then added in a final concentration of 0.5% DMSO. After 4 hours of incubation, the medium was removed, 100 μL of 4% formaldehyde was added, and the assay plates were incubated at room temperature for 20 minutes. The plates were then washed once with phosphate buffered saline (PBS), and permeabilized with 100 μL of chilled methanol for 10 minutes. Non-specific antibody binding to the plates was blocked using 50 μL 1×BSA blocking buffer (Thermo-37520, 10-fold dilution by Phosphate-Buffered Saline Tween (PBST) for at least 1 hour at room temperature.
(§5) The amount of phosphor-ERK was determined using an antibody specific for phosphorylated form of ERK. Primary antibody (pERK, CST-4370, Cell Signaling Technology) was diluted 1:300 in blocking buffer, with 50 μL aliquoted to each well, and incubated overnight at 4′° C. Cells was washed five times for 5 minutes with PBST. Secondary antibody ([…] anti-rabbit IgG, CST-7074, Cell Signaling Technology) was diluted 1:1000 in blocking buffer, and 50 μL was added to each well and incubated 1-2 hrs at room temperature. Cells was washed 5 times for 5 minutes with PBST, 100 μL TMB ELISA substrate (abcam-ab171523) were added and gently shake for 20 minutes. 50 μL stop solution (abcam-ab171529) were added, and then read the signal (OD450) by EnVision.
(§6) IC50 was determined by fitting a 4-parameter sigmoidal concentration response model.

[5] = system: phosphorylation of ERK, KRAS G12C in NCJ-H358 cells; assay: pERK inhibition assay, KRAS G12C; format: cell-based, human; settings: Homo sapiens, 4 hours
Procedure: as §4, §5, §6

Chain of KRAS G12V binding to BRAF (P01116-2 other isoform, or with tags, fused parts or gaps G12V): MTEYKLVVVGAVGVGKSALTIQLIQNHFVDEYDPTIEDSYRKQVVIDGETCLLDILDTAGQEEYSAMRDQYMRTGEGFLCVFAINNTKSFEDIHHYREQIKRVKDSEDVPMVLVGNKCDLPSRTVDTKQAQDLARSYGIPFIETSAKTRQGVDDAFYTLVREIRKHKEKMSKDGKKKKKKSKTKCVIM
Chain of KRAS G12V binding to BRAF (P62937 whole entry): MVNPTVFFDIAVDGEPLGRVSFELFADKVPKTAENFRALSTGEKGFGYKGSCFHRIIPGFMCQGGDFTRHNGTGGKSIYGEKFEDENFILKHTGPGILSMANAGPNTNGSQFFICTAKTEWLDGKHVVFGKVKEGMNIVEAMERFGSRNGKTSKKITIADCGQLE
Chain of KRAS G12C-BRAF complex (P01116-2 other isoform, or with tags, fused parts or gaps G12C): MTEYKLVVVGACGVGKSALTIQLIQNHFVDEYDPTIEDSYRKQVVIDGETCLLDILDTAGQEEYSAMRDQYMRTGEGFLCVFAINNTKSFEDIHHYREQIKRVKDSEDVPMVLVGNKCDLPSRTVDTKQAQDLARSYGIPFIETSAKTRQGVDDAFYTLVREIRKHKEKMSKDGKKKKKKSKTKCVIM
Chain of KRAS G12C-BRAF complex (P62937 whole entry): as the sequence (P62937 whole entry) above
Chain of KRAS G12D binding to BRAF (P01116-2 other isoform, or with tags, fused parts or gaps G12D): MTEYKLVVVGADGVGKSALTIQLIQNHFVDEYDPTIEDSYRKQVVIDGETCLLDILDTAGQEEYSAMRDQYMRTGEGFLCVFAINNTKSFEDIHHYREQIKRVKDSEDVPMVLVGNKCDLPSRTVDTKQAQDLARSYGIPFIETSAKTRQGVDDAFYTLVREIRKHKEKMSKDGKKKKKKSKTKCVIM
Chain of KRAS G12D binding to BRAF (P62937 whole entry): as the sequence (P62937 whole entry) above

CO[C@@H](C)c1ncc(N2CCN(C)CC2)cc1-c1c2c3cc(c(F)cc3n1CC(F)(F)F)-c1csc(n1)C[C@H](NC(=O)[C@H](C(C)C)N1CCC3(CN(C(=O)[C@H](F)Cl)C3)C1=O)C(=O)N1CCC[C@H](N1)C(=O)OCC(C)(C)C2 (atropisomer, axis not shown) [Example 25, (2S)-2-[2-[(2R)-2-chloro-2-fluoro-acetyl]-5-oxo-2,6-diazaspiro[3.4]octan-6-yl]-N-[(7S,13S)-24-fluoro-20-[2-[(1S)-1-methoxyethyl]-5-(4-methylpiperazin-1-yl)-3-pyridyl]-17,17-dimethyl-8,14-dioxo-21-(2,2,2-trifluoroethyl)-15-oxa-4-thia-9,21,27,28-tetrazapentacyclo[17.5.2.1^2,5.1^9,13.0^22,26]octacosa-1(25),2,5(28),19,22(26),23-hexaen-7-yl]-3-methyl-butanamide]
IC50 (KRAS G12C-BRAF complex): 98 nM | IC50 ([1]; Homo sapiens): 1650 nM | IC50 [2]: 6060 nM | IC50 (SW620 (ATCC-CCL-227); Homo sapiens, SW-620): 89 nM | IC50 [3]: 3540 nM

CCn1c(-c2cc(N3CCN(C)CC3)cnc2[C@H](C)OC)c2c3cc(c(F)cc31)-c1csc(n1)C[C@H](NC(=O)[C@H](COC1CN(C(=O)[C@H](F)Cl)C1)C(C)C)C(=O)N1CCC[C@H](N1)C(=O)OCC(C)(C)C2 (atropisomer, axis not shown; (M)) [Example 41, (2S)-2-[[1-[(2R)-2-chloro-2-fluoro-acetyl]azetidin-3-yl]oxymethyl]-N-[(7S,13S)-21-ethyl-24-fluoro-(20M)-20-[2-[(1S)-1-methoxyethyl]-5-(4-methylpiperazin-1-yl)-3-pyridyl]-17,17-dimethyl-8,14-dioxo-15-oxa-4-thia-9,21,27,28-tetrazapentacyclo[17.5.2.1^2,5.1^9,13.0^22,26]octacosa-1(25),2,5(28),19,22(26),23-hexaen-7-yl]-3-methyl-butanamide]
IC50 (KRAS G12C-BRAF complex): 88 nM | IC50 [4]: 199 nM | IC50 [2]: > 10000 nM | IC50 [3]: 1170 nM | IC50 [5]: 107 nM

CCn1c(-c2cc(N3CCN(CC(F)(F)F)CC3)cnc2[C@H](C)OC)c2c3cc(c(F)cc31)-c1csc(n1)C[C@H](NC(=O)[C@H](C(C)C)N1CCCC3(CCN(C(=O)[C@H](F)Cl)CC3)C1=O)C(=O)N1CCC[C@H](N1)C(=O)OCC(C)(C)C2 (atropisomer, axis not shown; (M)) [Example 48, (2S)-2-[9-[(2R)-2-chloro-2-fluoro-acetyl]-1-oxo-2,9-diazaspiro[5.5]undecan-2-yl]-N-[(7S,13S)-21-ethyl-24-fluoro-(20M)-20-[2-[(1S)-1-methoxyethyl]-5-[4-(2,2,2-trifluoroethyl)piperazin-1-yl]-3-pyridyl]-17,17-dimethyl-8,14-dioxo-15-oxa-4-thia-9,21,27,28-tetrazapentacyclo[17.5.2.1^2,5.1^9,13.0^22,26]octacosa-1(25),2,5(28),19,22(26),23-hexaen-7-yl]-3-methyl-butanamide]
IC50 (KRAS G12C-BRAF complex): 47 nM | IC50 [4]: 12 nM | IC50 [2]: 1030 nM | IC50 [3]: > 10000 nM | IC50 [5]: 2 nM

CCn1c(-c2cc(N3CCOCC3)cnc2[C@H](C)OC)c2c3cc(c(F)cc31)-c1csc(n1)C[C@H](NC(=O)[C@H](C(C)C)N1CCC3(CCN(C(=O)[C@H](F)Cl)CC3)C1=O)C(=O)N1CCC[C@H](N1)C(=O)OCC(C)(C)C2 (atropisomer, axis not shown; (M)) [Example 50, (2S)-2-[8-[(2R)-2-chloro-2-fluoro-acetyl]-1-oxo-2,8-diazaspiro[4.5]decan-2-yl]-N-[(7S,13S)-21-ethyl-24-fluoro-(20M)-20-[2-[(1S)-1-methoxyethyl]-5-morpholino-3-pyridyl]-17,17-dimethyl-8,14-dioxo-15-oxa-4-thia-9,21,27,28-tetrazapentacyclo[17.5.2.1^2,5.1^9,13.0^22,26]octacosa-1(25),2,5(28),19,22(26),23-hexaen-7-yl]-3-methyl-butanamide]
IC50 (KRAS G12C-BRAF complex): 124 nM | IC50 [4]: 6 nM | IC50 [2]: > 10000 nM | IC50 [3]: > 10000 nM | IC50 [5]: 6 nM

CCn1c(-c2cc(N3CCN(C)CC3)cnc2[C@H](C)OC)c2c3cc(c(F)cc31)-c1csc(n1)C[C@H](NC(=O)[C@H](C(C)C)N1CCC[C@]3(CCN(C(=O)[C@@H](F)Cl)C3)C1=O)C(=O)N1CCC[C@H](N1)C(=O)OCC(C)(C)C2 [Example 23, (2S)-2-[(5S)-2-[(2S)-2-chloro-2-fluoro-acetyl]-6-oxo-2,7-diazaspiro[4.5]decan-7-yl]-N-[(7S,13S)-21-ethyl-24-fluoro-(20M)-20-[2-[(1S)-1-methoxyethyl]-5-(4-methylpiperazin-1-yl)-3-pyridyl]-17,17-dimethyl-8,14-dioxo-15-oxa-4-thia-9,21,27,28-tetrazapentacyclo[17.5.2.1^2,5.1^9,13.0^22,26]octacosa-1(25),2,5(28),19,22(26),23-hexaen-7-yl]-3-methyl-butanamide]
IC50 (KRAS G12C-BRAF complex): 64 nM | IC50 [1]: 322 nM | IC50 [2]: 2080 nM | IC50 (SW620 (ATCC-CCL-227)): 90 nM | IC50 [3]: 5390 nM
